According to PMC8151276, “An Integrated Approach toward NanoBRET Tracers for Analysis of GPCR Ligand Engagement” (Molecules, 2021):

Tests used:
Format in all cases: binding
C5AR2 = biological target: T1, C5AR2 (Homo sapiens, UniProt Q9P296); assay: NanoBRET screen HiBiT-C5AR2 in HEK293
T1 construct: purchased Promega (in-house HiBiT-GPCR construct library, NanoBRET)
Method: (§1) Each tracer candidate was screened across the entire library of HiBiT-GPCR constructs using NanoBRET as the detection modality. As depicted in Figure 4A, the specificity of interactions was evaluated through decrease in BRET due to competitive displacement of a bound tracer by excess parental compound. Each tracer was analyzed for binding to each HiBiT-GPCR fusion in the absence and in the presence of competing parental compound. Briefly, HEK293 cells were transfected with HiBiT-GPCR constructs diluted into promoterless DNA to reduce expression and maximize translocation to the cell surface. Each tracer candidate was then screened at concentrations of 1 μM and 0.1 μM across cells expressing these fusions. Cells were treated for 1.5 h with tracer either alone or in the presence of 20 μM competing parental compound (i.e., control). BRET was measured upon addition of purified LgBiT and subsequent complementation with HiBiT genetically fused to a GPCR. The specificity of interactions was assessed through a decrease in BRET signal due to competitive displacement of the bound tracer. To further gauge the robustness of these interactions, the fold response over the control (i.e., BRETtracer/BRETcontrol) was calculated. We chose a 1.5-fold response, which translates to ≥7-fold signal over noise as the minimal threshold required to score an interaction as positive. […]. Below we highlight the screening results obtained for our exemplary fluorescent tracers based on Clozapine, Amitriptyline and AZD1283.
(§2) HiBiT-GPCR DNA constructs were diluted in 10 mM Tris pH 8 to a final concentration of 0.01 μg/μL, arrayed in 96-well plates and stored at −20 °C. For transfection, HEK293 cells were suspended in Opti-MEM (without phenol red) supplemented with 2% fetal bovine serum (Seradigm) and 100 units/mL penicillin–streptomycin (Gibco) at a final concentration of 220,000 cells/mL and dispensed into white 96-well plates at 90 μL/well. Subsequent transfections and screens were carried using an Agilent Bravo Automated Liquid Handling Platform. First, the 96-well HiBiT DNA arrays were diluted 25-fold in Opti-MEM (without serum or phenol red) to a final concentration of 0.0004 μg/μL and 20 μL of the diluted DNAs were transferred into new 96-well plates. Next, promoterless carrier DNA (1 μg/μL) was diluted 25-fold (0.04 μg/μL) and then dispensed into the diluted arrays at 20 μL/well. Following brief mixing, Viafect transfection reagent (Promega) diluted 16-fold into Opti-MEM was dispensed into the plates at 40 μL/well. After mixing by pipetting, plates were incubated for 10 min on the pipetting station deck. The DNA-transfection reagent complexes were then added to plates containing cells. To facilitate the screen, 10 μL of DNA-transfection reagent complexes were added in duplicates to the top 4 and bottom 4 rows, resulting in two identical 48-well arrays per plate. Plates with transfected cells were incubated for 18–20 h at 37 °C/5% CO2. A screen of each tracer across the entire library using two different concentrations requires duplicate plates of transfected cells. Depending on the number of tracers being screened, transfections can be scaled up using the same ratios. The next day, for each tracer, four 20× screening solutions in tracer dilution buffer (Promega) were prepared: two duplicates at final concentration of 20 μM and two duplicates at a final concentration of 2 μM. A competing unmodified compound was added to one of each duplicate at a final concentration of 400 μM. The four resulting solutions were diluted 4-fold in Opti-MEM without serum or phenol red to generate 5× solutions (5 µM and 0.5 µM tracer +/− 100 μM competing compound). To screen the library, a BioTek MultiFlo FX liquid dispenser was used to dispense 22.5 µL of tracer solution to the top 4 rows and 22.5 µL tracer + competing compound solution to the 4 bottom rows. Plates were briefly mixed on an orbital shaker and incubated for 1.5 h at room temperature. […]

FZD2 = biological target: T2, FZD2 (Homo sapiens, UniProt Q14332); assay: NanoBRET screen HiBiT-FZD2 in HEK293
T2 construct: purchased Promega (in-house HiBiT-GPCR construct library, NanoBRET)
Method: as §1, §2

GABBR1 = biological target: T3, GABBR1 (Homo sapiens, UniProt Q9UBS5); assay: NanoBRET screen HiBiT-GABBR1 in HEK293
T3 construct: purchased Promega (in-house HiBiT-GPCR construct library, NanoBRET)
Method: as §1, §2

P2RY10 = biological target: T4, P2RY10 (Homo sapiens, UniProt O00398); assay: NanoBRET screen HiBiT-P2RY10 in HEK293
T4 construct: purchased Promega (in-house HiBiT-GPCR construct library, NanoBRET)
Method: as §1, §2

SSTR5 = biological target: T5, SSTR5 (Homo sapiens, UniProt P35346); assay: NanoBRET screen HiBiT-SSTR5 in HEK293
T5 construct: purchased Promega (in-house HiBiT-GPCR construct library, NanoBRET)
Method: as §1, §2

GRM3 = biological target: T6, GRM3 (Homo sapiens, UniProt Q14832); assay: NanoBRET screen HiBiT-GRM3 in HEK293; settings: GRM3
T6 construct: purchased Promega (in-house HiBiT-GPCR construct library, NanoBRET)
Method: as §1, §2

[1] = tracer at 0.1μM, listed as amitriptyline-b-2-NB590
[2] = tracer at 1μM, listed as amitriptyline-b-2-NB590

T5 sequence (P35346 whole entry): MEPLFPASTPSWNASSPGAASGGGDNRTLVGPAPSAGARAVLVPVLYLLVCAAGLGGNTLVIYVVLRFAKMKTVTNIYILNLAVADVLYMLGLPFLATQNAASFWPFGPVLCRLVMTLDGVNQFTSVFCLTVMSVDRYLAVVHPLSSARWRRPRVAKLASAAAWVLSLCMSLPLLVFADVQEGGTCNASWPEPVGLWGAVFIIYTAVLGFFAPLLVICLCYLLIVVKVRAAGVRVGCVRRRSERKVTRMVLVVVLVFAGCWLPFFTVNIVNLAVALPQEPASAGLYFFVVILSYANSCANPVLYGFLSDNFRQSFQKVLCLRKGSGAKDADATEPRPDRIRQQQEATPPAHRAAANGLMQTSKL
T6 sequence (Q14832 23-879): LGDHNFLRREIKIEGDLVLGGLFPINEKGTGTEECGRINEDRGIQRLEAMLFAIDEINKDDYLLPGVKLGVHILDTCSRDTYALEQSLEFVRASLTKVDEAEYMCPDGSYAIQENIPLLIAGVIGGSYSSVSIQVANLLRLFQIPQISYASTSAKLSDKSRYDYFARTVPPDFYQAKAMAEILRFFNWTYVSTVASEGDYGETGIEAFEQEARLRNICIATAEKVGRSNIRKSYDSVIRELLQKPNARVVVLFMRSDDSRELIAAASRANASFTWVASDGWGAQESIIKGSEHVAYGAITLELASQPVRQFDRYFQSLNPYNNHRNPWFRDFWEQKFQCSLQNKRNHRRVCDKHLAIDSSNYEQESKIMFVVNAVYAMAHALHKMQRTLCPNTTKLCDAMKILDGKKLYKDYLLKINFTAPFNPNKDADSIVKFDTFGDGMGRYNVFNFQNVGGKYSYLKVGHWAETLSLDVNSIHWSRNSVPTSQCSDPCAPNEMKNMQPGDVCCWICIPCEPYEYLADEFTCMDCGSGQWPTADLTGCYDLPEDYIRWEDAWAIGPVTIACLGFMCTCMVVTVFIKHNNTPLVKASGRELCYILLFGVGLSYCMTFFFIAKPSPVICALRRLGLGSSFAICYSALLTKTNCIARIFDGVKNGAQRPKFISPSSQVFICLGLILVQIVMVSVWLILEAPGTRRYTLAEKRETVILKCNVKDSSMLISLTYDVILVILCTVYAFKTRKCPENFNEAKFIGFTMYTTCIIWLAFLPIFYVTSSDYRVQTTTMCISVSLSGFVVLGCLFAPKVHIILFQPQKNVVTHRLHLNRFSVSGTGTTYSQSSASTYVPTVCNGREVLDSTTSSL
T2 sequence (Q14332 24-565): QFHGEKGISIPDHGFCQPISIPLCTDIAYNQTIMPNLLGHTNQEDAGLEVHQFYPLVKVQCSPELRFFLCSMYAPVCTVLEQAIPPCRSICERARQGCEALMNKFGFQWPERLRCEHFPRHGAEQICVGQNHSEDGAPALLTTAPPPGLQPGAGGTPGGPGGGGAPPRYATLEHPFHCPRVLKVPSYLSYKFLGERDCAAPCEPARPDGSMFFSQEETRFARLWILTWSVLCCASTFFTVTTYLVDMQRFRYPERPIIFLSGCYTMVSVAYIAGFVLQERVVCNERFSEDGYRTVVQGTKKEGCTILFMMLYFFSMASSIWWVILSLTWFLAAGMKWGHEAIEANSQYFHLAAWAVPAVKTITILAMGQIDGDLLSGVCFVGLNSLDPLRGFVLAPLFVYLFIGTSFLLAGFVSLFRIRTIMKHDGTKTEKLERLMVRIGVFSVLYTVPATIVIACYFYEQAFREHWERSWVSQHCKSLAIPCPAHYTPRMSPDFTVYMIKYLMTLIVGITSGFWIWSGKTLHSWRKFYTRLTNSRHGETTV
T3 sequence (Q9UBS5 15-961 limits assumed): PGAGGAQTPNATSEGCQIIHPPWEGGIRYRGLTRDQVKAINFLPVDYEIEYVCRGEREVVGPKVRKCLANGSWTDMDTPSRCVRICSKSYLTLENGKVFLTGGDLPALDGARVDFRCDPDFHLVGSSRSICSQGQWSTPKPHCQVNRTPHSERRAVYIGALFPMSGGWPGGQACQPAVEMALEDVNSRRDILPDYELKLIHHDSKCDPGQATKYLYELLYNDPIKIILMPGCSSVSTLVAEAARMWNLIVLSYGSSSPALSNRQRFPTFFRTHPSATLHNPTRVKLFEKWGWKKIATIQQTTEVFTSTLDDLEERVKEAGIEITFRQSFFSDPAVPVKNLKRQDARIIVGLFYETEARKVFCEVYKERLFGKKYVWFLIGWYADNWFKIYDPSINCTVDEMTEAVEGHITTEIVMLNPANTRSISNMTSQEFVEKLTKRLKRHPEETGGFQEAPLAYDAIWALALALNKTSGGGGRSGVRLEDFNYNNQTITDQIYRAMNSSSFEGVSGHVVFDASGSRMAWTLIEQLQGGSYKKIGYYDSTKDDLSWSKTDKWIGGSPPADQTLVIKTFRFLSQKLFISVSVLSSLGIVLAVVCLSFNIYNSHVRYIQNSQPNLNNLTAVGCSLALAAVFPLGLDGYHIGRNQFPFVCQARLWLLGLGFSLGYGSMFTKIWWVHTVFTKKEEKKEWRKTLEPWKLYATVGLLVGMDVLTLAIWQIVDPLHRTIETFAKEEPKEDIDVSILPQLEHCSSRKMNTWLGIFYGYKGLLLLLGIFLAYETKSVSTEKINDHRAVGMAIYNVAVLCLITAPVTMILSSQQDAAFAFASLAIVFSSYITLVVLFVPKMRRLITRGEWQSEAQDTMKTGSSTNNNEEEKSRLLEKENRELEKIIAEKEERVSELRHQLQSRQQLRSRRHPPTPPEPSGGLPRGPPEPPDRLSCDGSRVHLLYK
T4 sequence (O00398 whole entry, one chain of several): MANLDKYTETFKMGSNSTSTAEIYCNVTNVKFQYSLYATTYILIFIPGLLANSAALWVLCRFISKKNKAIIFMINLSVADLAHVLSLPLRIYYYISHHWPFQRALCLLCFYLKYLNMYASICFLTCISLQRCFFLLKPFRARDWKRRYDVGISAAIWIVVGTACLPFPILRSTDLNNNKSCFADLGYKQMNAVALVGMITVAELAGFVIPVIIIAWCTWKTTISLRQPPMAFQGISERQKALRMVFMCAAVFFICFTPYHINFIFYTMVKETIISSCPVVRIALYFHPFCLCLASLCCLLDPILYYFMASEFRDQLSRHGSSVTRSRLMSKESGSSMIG
T1 sequence (Q9P296 whole entry): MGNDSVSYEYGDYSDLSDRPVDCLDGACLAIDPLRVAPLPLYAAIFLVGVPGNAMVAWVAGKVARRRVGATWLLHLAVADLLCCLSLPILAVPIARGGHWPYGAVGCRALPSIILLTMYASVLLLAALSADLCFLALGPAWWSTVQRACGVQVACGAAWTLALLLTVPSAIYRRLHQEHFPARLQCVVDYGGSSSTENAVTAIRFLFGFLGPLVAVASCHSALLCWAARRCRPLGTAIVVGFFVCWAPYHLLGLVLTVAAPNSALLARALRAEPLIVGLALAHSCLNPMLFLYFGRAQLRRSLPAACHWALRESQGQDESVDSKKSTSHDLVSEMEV

Row | SMILES | NanoBRET Fold Response (C5AR2; C5AR2, tracer 0.1μM) | NanoBRET Fold Response (C5AR2; C5AR2, tracer 1μM) | NanoBRET Fold Response (FZD2; FZD2, tracer 0.1μM) | NanoBRET Fold Response (FZD2; FZD2, tracer 1μM) | NanoBRET Fold Response (GABBR1; GABBR1, tracer 0.1μM) | NanoBRET Fold Response (GABBR1; GABBR1, tracer 1μM) | NanoBRET Fold Response (P2RY10; P2RY10, tracer 0.1μM) | NanoBRET Fold Response (P2RY10; P2RY10, tracer 1μM) | NanoBRET Fold Response (SSTR5; SSTR5, tracer 0.1μM) | NanoBRET Fold Response (SSTR5; SSTR5, tracer 1μM) | NanoBRET Fold Response (GRM3; tracer 0.1μM) | NanoBRET Fold Response (GRM3; tracer 1μM) | NanoBRET Fold Response (C5AR2; tracer at 1μM) | NanoBRET Fold Response (FZD2; tracer at 1μM) | NanoBRET Fold Response (GABBR1; tracer at 1μM) | NanoBRET Fold Response (P2RY10; tracer at 1μM) | NanoBRET Fold Response (SSTR5; tracer at 1μM) | further results
1 | O=C(CCOCCOCCOCCOCCNC(=O)CCc1ccc2n1[B-](F)(F)[N+]1=C(c3ccc[nH]3)C=CC1=C2)NCCCN1CCN(C2=Nc3ccccc3Oc3ccc(Cl)cc32)CC1 [Loxapine-a-2-NB590] | 0.95 | 1.07 | 1.07 | 1.05 | 1.03 | 0.92 | 1.14 | 0.98 | 1.10 | 1.15 | 0.99 | 1.03 |  |  |  |  |  | 
2 | CCCn1c(=O)c2[nH]c(-c3ccc(OCC(=O)NCCNC(=O)CCOCCNC(=O)c4ccc(CNC(=O)CCc5ccc6n5[B-](F)(F)[N+]5=C(c7ccc[nH]7)C=CC5=C6)cc4)cc3)nc2n(CCC)c1=O [XAC-3-NB590] | 1.02 | 1.01 | 1.09 | 1.04 | 0.86 | 1.00 | 0.88 | 0.84 | 0.99 | 1.01 | 1.02 | 1.10 |  |  |  |  |  | 
3 | CN(C)CCC=C1c2ccccc2CCc2ccc(C(=O)NCCNC(=O)CCOCCOCCOCCOCCNC(=O)CCc3ccc4n3[B-](F)(F)[N+]3=C(c5ccc[nH]5)C=CC3=C4)cc21 [Amitriptyline-a-2-NB590] |  |  |  |  |  |  |  |  |  |  |  |  | 1.01 | 1.00 | 0.91 | 1.07 | 1.05 | NanoBRET Fold Response (C5AR2; tracer at 0.1μM): 1.11; NanoBRET Fold Response (FZD2; tracer at 0.1μM): 1.04; NanoBRET Fold Response (GABBR1; tracer at 0.1μM): 0.93; NanoBRET Fold Response (P2RY10; tracer at 0.1μM): 1.09; NanoBRET Fold Response (SSTR5; tracer at 0.1μM): 1.00
4 | COc1ccccc1N1CCN(CCCCN2C(=O)c3ccc(CNC(=O)CCOCCOCCOCCOCCNC(=O)CCc4ccc5n4[B-](F)(F)[N+]4=C(c6ccc[nH]6)C=CC4=C5)cc3C2=O)CC1 [NAN-190-2-NB590] | 1.02 |  | 0.97 | 1.02 | 0.88 | 0.93 |  | 0.95 | 0.98 | 1.04 | 0.95 |  |  |  |  |  |  | 
5 | CN(CCC=C1c2ccccc2CCc2ccccc21)C(=O)CCOCCOCCOCCOCCNC(=O)CCc1ccc2n1[B-](F)(F)[N+]1=C(c3ccc[nH]3)C=CC1=C2 [Amitriptyline-e-2-NB590] |  |  |  |  |  |  |  |  |  |  |  |  | 1.01 | 1.03 | 1.09 | 0.99 |  | 
6 | CN(C)CCC=C1c2ccccc2CCc2ccc(C(=O)NCCNC(=O)CCOCCOCCOCCOCCNC(=O)CCc3ccc4n3[B-](F)(F)[N+]3=C(c5ccc[nH]5)C=CC3=C4)cc21 [Amitriptyline-b-2-NB590] |  |  |  |  |  |  |  |  |  |  | 1.00 | 1.03 |  |  |  |  | 0.97 | NanoBRET Fold Response (FZD2; [1]): 1.03; NanoBRET Fold Response (FZD2; [2]): 0.94; NanoBRET Fold Response (GABBR1; [1]): 1.11; NanoBRET Fold Response (GABBR1; [2]): 0.85; NanoBRET Fold Response (P2RY10; [1]): 1.14; NanoBRET Fold Response (P2RY10; [2]): 1.38; NanoBRET Fold Response (SSTR5; [1]): 0.96
